Here are results for one compound from patent US11684606B2, “Methods of treating generalized pustular psoriasis with an antagonist of CCR6 or CXCR2” (CHEMOCENTRYX, INC., priority 2018, dated 2023).

For series [1], the system named is IL-36α-injected ears of Balb/c mice. As to the kind of experiment: H&E histology and epidermal thickness of IL-36α-injected ears. The class given is in vivo, mouse. Here is the method: (§1) For in vivo dosing, mice were dosed subcutaneously with Compound 1.136 once daily (s.c. q.d. in 1% HPMC) at 90 mg/kg unless stated otherwise, starting at day 0 of a study. The in vivo dose was predicted based on in vitro potency and the pharmacokinetic response to a single dose in mice. The minimum antagonist concentration (at trough) to fully cover a gradient-sensing chemoattractant receptor has been determined to correspond with the IC90 concentration (Schall, T. J., and A. E. Proudfoot. 2011. Overcoming hurdles in developing successful drugs targeting chemokine receptors. Nat Rev Immunol 11: 355-363).
For hematoxylin and eosin (H&E) staining, ear tissue was initially fixed in paraformaldehyde for paraffin embedding. Samples were processed by standard procedures. Epidermal thickness was measured as the average of 7 measurements made along the center third (the area containing the lesion) of the length of the H&E stained ear sections using Photoshop CS4 software (Adobe®)

In another series the target is T1, mCXCR2 (Mus musculus, UniProt P35343).
T1 construct: endogenous in cells; host or cells: mouse bone marrow cells (from the earlier reading's assay name)
T1 sequence (P35343 1-359): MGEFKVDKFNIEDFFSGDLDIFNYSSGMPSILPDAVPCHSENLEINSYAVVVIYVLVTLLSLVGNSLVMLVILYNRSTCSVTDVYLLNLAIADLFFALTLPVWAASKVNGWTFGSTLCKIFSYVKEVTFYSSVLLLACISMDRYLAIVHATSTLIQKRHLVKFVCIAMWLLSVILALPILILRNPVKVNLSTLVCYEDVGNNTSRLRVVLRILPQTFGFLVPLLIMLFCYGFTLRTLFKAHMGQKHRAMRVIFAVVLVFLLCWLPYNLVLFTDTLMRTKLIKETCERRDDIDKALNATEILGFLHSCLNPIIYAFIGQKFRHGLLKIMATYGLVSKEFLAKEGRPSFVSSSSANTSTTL
Briefly: In vitro inhibition of chemotaxis, mouse bone marrow cells to mCXCL1. It is filed as cell-based. The conditions noted are these: in 100% serum. Here is the method:
For in vitro determination of chemokine receptor inhibitor activity, Compound 1.136 was dissolved in DMSO to generate a stock concentration of 10 mM that was further diluted in chemotaxis migration buffer (HBSS, 1% BSA, 1% HEPES) to create a 10-point inhibitor gradient ranging from 100 nM-0.01 nM. Migration assay was then run in 100% mouse serum in response to rmCCL20 for CCR6 activity or rmCXCL1 for CXCR2 activity using ChemoTx plates (Neuroprobe, Gaithersburg Md.) and assessed by fluorescence staining of migrated cells with CyQuant (Thermo Fisher).

A further series deals with T2, mCCR5 (Mus musculus, UniProt P51682).
T2 construct: expressed in transfected cells; host or cells: BaF3 cells (from the earlier reading's assay name)
T2 sequence (P51682 whole entry): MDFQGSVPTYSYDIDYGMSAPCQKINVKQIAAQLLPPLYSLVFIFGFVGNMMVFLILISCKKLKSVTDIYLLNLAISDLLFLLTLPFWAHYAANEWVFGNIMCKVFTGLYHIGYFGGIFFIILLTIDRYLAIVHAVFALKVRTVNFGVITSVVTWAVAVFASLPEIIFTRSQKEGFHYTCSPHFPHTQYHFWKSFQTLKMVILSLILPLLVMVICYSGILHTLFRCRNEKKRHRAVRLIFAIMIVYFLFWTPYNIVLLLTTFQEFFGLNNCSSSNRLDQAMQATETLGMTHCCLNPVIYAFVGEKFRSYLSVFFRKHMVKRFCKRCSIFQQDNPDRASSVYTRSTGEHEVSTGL
Briefly: Chemotaxis of mCCR5-transfected BaF3 cells to mCCL5. The class given is cell-based. Particulars: in serum; unit inferred.

The target of the next series is T3, mCCR9 (Mus musculus, UniProt Q9WUT7).
T3 construct: endogenous in cells; host or cells: mouse thymocytes (from the earlier reading's assay name)
T3 sequence (Q9WUT7 1-369): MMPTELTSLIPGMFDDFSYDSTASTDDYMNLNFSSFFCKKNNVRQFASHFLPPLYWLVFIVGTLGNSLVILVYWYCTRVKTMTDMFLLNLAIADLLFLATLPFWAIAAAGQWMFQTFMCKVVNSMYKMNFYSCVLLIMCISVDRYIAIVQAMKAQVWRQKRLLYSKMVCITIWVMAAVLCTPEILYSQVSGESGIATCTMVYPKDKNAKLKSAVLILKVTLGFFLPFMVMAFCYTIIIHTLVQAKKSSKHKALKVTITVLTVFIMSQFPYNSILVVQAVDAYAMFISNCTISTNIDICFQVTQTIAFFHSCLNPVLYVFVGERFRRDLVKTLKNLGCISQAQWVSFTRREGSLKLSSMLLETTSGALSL
As to the kind of experiment: Chemotaxis of mouse thymocytes to mCCL25. It is filed as cell-based. Particulars: in serum; unit inferred.

Series [2] in a line: Plasma concentrations at trough after s.c. q.d. dosing. It is filed as in vivo. The conditions noted are these: Balb/c, mouse, subcutaneous, 24 hours post final dose (day 5), mice. As for the experimental part: as §1
In a further series the target is T4, mCCR7 (Mus musculus, UniProt P47774).
T4 construct: endogenous in cells; host or cells: mouse splenocytes (from the earlier reading's assay name)
T4 sequence (P47774 25-378): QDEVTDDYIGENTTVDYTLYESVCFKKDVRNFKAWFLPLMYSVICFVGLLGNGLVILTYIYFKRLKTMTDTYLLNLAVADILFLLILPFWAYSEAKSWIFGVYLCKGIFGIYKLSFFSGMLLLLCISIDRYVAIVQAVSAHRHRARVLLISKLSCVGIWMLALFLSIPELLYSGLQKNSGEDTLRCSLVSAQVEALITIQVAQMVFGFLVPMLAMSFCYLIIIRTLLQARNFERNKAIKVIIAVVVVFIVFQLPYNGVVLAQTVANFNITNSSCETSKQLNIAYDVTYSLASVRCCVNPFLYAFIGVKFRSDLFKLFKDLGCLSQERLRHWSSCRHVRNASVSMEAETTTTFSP
As to the kind of experiment: Chemotaxis of mouse splenocytes to mCCL19. The class given is cell-based. The conditions noted are these: in serum; unit inferred.

The subject of series [3] is IL-36α-injected ears of Balb/c mice. Briefly: Mouse model of IL-36-induced ear thickening (GPP model). It is filed as in vivo. Here is the method:
as §1
Mouse model of IL-36-induced ear thickening. The right ear of 8-week old Balb/c mice received intradermal injections of recombinant murine IL-36α (150 μg per mouse formulated in PBS; BioLegend) every day for 5 days. Intradermal injections of PBS were given to the left ear as a control. Ear thickness was measured prior to start of study and each day thoughout the study using a digital micrometer. The imiquimod model of psoriasiform dermatitis was performed as previously described (Campbell Jet al. J Immunol. 2017; 199(9):3129-36. van der Fits et al. J Immunol 2009; 182(9):5836-45). Briefly, 5% Imiquimod (Fougera®) was applied daily to the shaved and depilated backs of Balb/c mice for up to 4 days. Control mice were treated with an application of Vaseline. Erythema, desquamation, and skin thickening were scored independently on a scale from 0 to 4 where 0=no disease; 1=slight disease; 2=moderate disease; 3=marked disease; 4=very marked disease (Campbell J et al. J Immunol. 2017; 199(9):3129-36. van der Fits et al. J Immunol 2009; 182(9):5836-45). Skin from the backs of mice was excised at the end of the study and processed for flow cytometry analysis,
Mouse anti-IL-17RA. (R&D Systems) was dosed as a positive control at 200-500 μg per mouse, i.p., q.d.

Molecules are shown by their SMILES. ≈ marks a conversion by molar mass, not a printed value. Entries after “also recorded” stand apart in the source; their conditions may differ. Bounds are passed on as bounds.

The IC50 is the concentration that inhibits the measured activity by half. The IC90 is the point of the concentration-response curve where the effect stands at 90%.

Regarding `CCC(C)(C)[C@@H](Nc1c(Nc2c(F)ccc3c2C(=O)N[C@H]3C)c(=O)c1=O)c1ccc(C)o1` [Compound 1.136], the IL-36α-mediated epidermal thickness entry in series [1] (H&E ear sections after 4 daily IL-36α treatments, Compound 1.136 90 mg/kg/day s.c., anti-IL17RA 200 μg/mouse/day IP, 90 mg/kg/day) is “significantly reduced IL-36α-mediated epidermal thickness; also recorded: substantially reduces epidermal thickness”. Also, the “Stratum corneum and leukocyte infiltration in histology” value in series [1] (H&E sections after 4 days of treatment, Compound 1.136 90 mg/kg daily) is “the stratum corneum remained intact and leukocyte infiltration was reduced”. Also, the “Histology of IL-36α-injected ears: dermal, epidermal and overall skin thickness” value in series [1] (H&E sections after 4 days of treatment, Compound 1.136 90 mg/kg daily, 90 mg/kg) is “reduced IL-36α-induced dermal, epidermal and overall skin thickness; also recorded: substantially improves histology of IL-36α-injected ears”. Besides, the concentration for half-maximal inhibition (IC50) on mCXCR2 (read-out: IC50 on mouse CXCR2, in vitro inhibition of chemotaxis) was 0.02 µM; against mCCR5, more than 10 µM; against mCCR9, more than 10 µM; against mCCR7, 6 µM. On mCXCR2 (read-out: IC90 for CXCR2 inhibition), the IC90 came out at 0.145 µg/mL (≈ 0.33 µM). The concentration at 24 h in series [2] (30 mg/kg s.c. q.d. in 1% HPMC) was 267 ± 18 ng/mL; in series [2] (60 mg/kg s.c. q.d. in 1% HPMC) it was 323 ± 20 ng/mL; in series [2] (90 mg/kg s.c. q.d. in 1% HPMC) it was 973 ± 19 ng/mL. Further, the “Effectiveness at reducing ear swelling, Compound 1.136 compared with α-IL-17RA” value in series [3] (90 mg/kg Compound 1.136 vs saturating dose of anti-IL-17RA MAb (500 μg per mouse per day), Mann-Whitney) was “significantly more effective than α-IL-17RA”. Moreover, the “Time course of the effect on ear thickness” value in series [3] (Balb/c mice, daily intradermal IL-36α, Compound 1.136 s.c. once daily) is recorded as “appreciable after the second day of treatment”. For the same compound, the “IL-36-induced ear thickening / ear swelling” value in series [3] (Balb/c mice, daily intradermal IL-36α, ear thickness after 4 days, Compound 1.136 30-90 mg/kg s.c. q.d., anti-IL-17RA 200 or 500 μg per mouse IP daily) is “dose-dependent decreases in IL-36-induced ear thickening; also recorded: ameliorates inflammatory swelling of IL-36α-injected ears”.
